# According to publication PMC12648288, “Drastic Impact of Donor Substituents on Xanthenes in the PDT of Glioblastoma” (JACS Au, 2025):
# Experiments:
# U118MG cells = experiment: Lipid peroxidation (TBARS); assay type: cell-based, human; conditions: IC50 concentration, PDT, up to 24 h postirradiation, % of untreated control
# Method: (§1) Further analysis was conducted to elucidate mitochondrial- or lysosomal-localization-dependent cell death mechanisms. For this purpose, lipid peroxidation, a major end product of ROS-mediated cellular damage, was assessed. […] Moreover, the pronounced rise in lipid peroxidation was predominantly evident during the 24 h resting stage rather than immediately after light exposure, as observed with NSeAze. The apparent increase in lipid peroxidation explains the damage to the membranous structures of cells, such as mitochondria, lysosomes, and plasma membranes (Figure a,b). This was further confirmed by the detection of free unsaturated lipid content of cells, which is released upon disruption of the membranous structures.
# (§2) Determination of lipid peroxidation
# (§3) The effect of NSeMorph and NSeAze on lipid peroxidation was investigated using thiobarbituric acid reactive substances (TBARS) method,1 which is based on measuring malondialdehyde (MDA) levels, the end-product of lipid peroxidation. For this purpose, cells were seeded in 6-well plates at a density of 1 × 10^6 cells/well and incubated overnight. Afterwards, both compounds were administered in IC50 values according to the above-mentioned PDT protocol. The resulting lipid peroxidation was measured following the immediate irradiation and after 24 h of resting stage. After the indicated time periods, cells were harvested and lysed with a RIPA cell lysis buffer (Merck, Germany). The lysates were then prepared according to the TBARS assay protocol. Briefly, the samples were mixed with 0.8% thiobarbituric acid prepared in 20% trichloroacetic acid solution and then incubated for 2 h at 95 °C. Absorbance of the resulting pink-to-red color was measured at 532 nm with a spectrophotometer (Thermo, Germany). Data were expressed as % compared to untreated control group and normalized to cell viability rates (n=6). […]
# U87MG cells = experiment: Lipid peroxidation (TBARS); assay type: cell-based, human; conditions: IC50 concentration, PDT, up to 24 h postirradiation, % of untreated control
# Method: as §1, §2, §3
smiles,measurement,setting,value
c1cc2nc3ccc(=[N+]4CCC4)cc-3[se]c2cc1N1CCC1 [NSeAze],Lipid peroxidation,U118MG cells,245.24 ± 5.92%
same,Lipid peroxidation,U87MG cells,309.64 ± 13.20%
c1cc2nc3ccc(=[N+]4CCOCC4)cc-3[se]c2cc1N1CCOCC1 [NSeMorph],Lipid peroxidation,U118MG cells,244.22 ± 2.38%
same,Lipid peroxidation,U87MG cells,216.73 ± 3.98%
